Laboratory results from PubChem BioAssay (NCI).
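Five concentrations, 48 hours, 96-well plates. Here, GI50 denotes the concentration required for 50% inhibition of growth. TGI marks complete inhibition of growth.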

Key:
Test in all cases: NCI-60 cell line screen, 48 h
[1] = system: NCI-H522 lung
[2] = system: SK-MEL-5 melanoma
[3] = system: RPMI-8226 leukemia
[4] = system: M14 melanoma
[5] = system: HS 578T breast
[6] = system: SF-539 CNS
[7] = system: SNB-75 CNS
[8] = system: HCT-15 colon
[9] = system: OVCAR-5 ovarian
[10] = system: OVCAR-4 ovarian
[11] = system: MDA-MB-231 breast
[12] = system: PC-3 prostate
[13] = system: COLO 205 colon
[14] = system: HOP-92 NSCLC
[15] = system: HCC-2998 colon
[16] = system: UACC-62 melanoma
[17] = system: EKVX NSCLC
[18] = system: TK-10 renal
[19] = system: MCF7 breast
[20] = system: SF-268 CNS
[21] = system: IGROV1 ovarian
[22] = system: NCI/ADR-RES ovarian
[23] = system: OVCAR-8 ovarian
[24] = system: HOP-62 NSCLC
[25] = system: ACHN renal
[26] = system: U251 CNS
[27] = system: SW-620 colon
[28] = system: SNB-19 CNS
[29] = system: 786-0 renal
[30] = system: A498 renal
[31] = system: SK-MEL-2 melanoma
[32] = system: SN12C renal
[33] = system: LOX IMVI melanoma
[34] = system: NCI-H23 lung
[35] = system: SK-OV-3 ovarian
[36] = system: BT-549 breast
[37] = system: RXF 393 renal
[38] = system: SF-295 CNS

For `COc1ccc(C2CC(c3cc(OC)c(OC)c(OC)c3)=NN2C(C)=O)cc1OCC(=O)Nc1nc2ccc(C(F)(F)F)cc2s1` (stereo unspecified), the GI50 [1] was 2.71 µM, the TGI [1] was greater than 100 µM and the GI50 [2] was 3.56 µM. The TGI [2] was greater than 100 µM, the GI50 [3] was 2.21 µM and the TGI [3] was 7.09 µM. It also gave a GI50 [4] of 6.44 µM, a TGI [4] greater than 100 µM and a GI50 [5] of 2.48 µM. The TGI [5] was 7.74 µM, the GI50 [6] was 1.75 µM and the TGI [6] was 3.42 µM. The GI50 [7] was 1.55 µM, the TGI [7] was 4.78 µM and the GI50 [8] was 9.26 µM. It also gave a TGI [8] greater than 100 µM, a GI50 [9] of 28.2 µM and a TGI [9] greater than 100 µM. For the same compound, the GI50 [10] was 2.9 µM, the TGI [10] was greater than 100 µM and the GI50 [11] was 3.11 µM. It also gave a TGI [11] of 8.96 µM, a GI50 [12] of 2.92 µM and a TGI [12] greater than 100 µM. The GI50 [13] was 3.94 µM, the TGI [13] was greater than 100 µM and the GI50 [14] was 1.7 µM. For the same compound, the TGI [14] was 4.02 µM, the GI50 [15] was greater than 100 µM and the TGI [15] was greater than 100 µM. For the same compound, the GI50 [16] was 3.77 µM, the TGI [16] was greater than 100 µM and the GI50 [17] was 4.1 µM. It also gave a TGI [17] greater than 100 µM, a GI50 [18] of 2.85 µM and a TGI [18] of 7.77 µM. It also gave a GI50 [19] of 4.02 µM, a TGI [19] greater than 100 µM and a GI50 [20] of 3.84 µM. The TGI [20] was 29.5 µM, the GI50 [21] was 5.3 µM and the TGI [21] was greater than 100 µM. The GI50 [22] was 3.13 µM, the TGI [22] was greater than 100 µM and the GI50 [23] was 3.36 µM. For the same compound, the TGI [23] was greater than 100 µM, the GI50 [24] was 2.2 µM and the TGI [24] was 5.58 µM. The GI50 [25] was 2.48 µM, the TGI [25] was 7.13 µM and the GI50 [26] was 3.08 µM. The TGI [26] was 9.9 µM, the GI50 [27] was greater than 100 µM and the TGI [27] was greater than 100 µM. The GI50 [28] was 11 µM, the TGI [28] was 35.8 µM and the GI50 [29] was 3.58 µM. It also gave a TGI [29] of 12.2 µM, a GI50 [30] of 2.78 µM and a TGI [30] of 9.7 µM. It also gave a GI50 [31] of 3.08 µM, a TGI [31] of 20.4 µM and a GI50 [32] of 3.31 µM. For the same compound, the TGI [32] was greater than 100 µM, the GI50 [33] was 3.36 µM and the TGI [33] was greater than 100 µM. It also gave a GI50 [34] of 3.76 µM, a TGI [34] of 33 µM and a GI50 [35] of 5.75 µM. For the same compound, the TGI [35] was 39.1 µM, the GI50 [36] was 3.55 µM and the TGI [36] was 82 µM. It also gave a GI50 [37] of 2.09 µM, a TGI [37] of 5.32 µM and a GI50 [38] of 3.06 µM. The TGI [38] was 11.5 µM.
